Series [1] deals with T1, Hb (Homo sapiens, UniProt P68871+P69905).
T1 construct: from tissue
As to the kind of experiment: Whole blood assay: oxygen equilibrium curves (Hemox Analyzer), change in O2 affinity of Hb. The series is classed as cell-based. The following applies: whole blood incubated 1 h at 37° C., equimolar ratio of hemoglobin to compound; sodium salts of 2B (Enantiomer 1), 4B, 5B used. As for the experimental part:
Oxygen equilibrium curves (OECs) were collected using a TCS Hemox Analyzer (TCS Scientific Company, New Hope, PA, USA) to measure changes in the binding affinity of O2 to Hb. Whole blood was incubated for 1 h at 37° C. with the indicated compounds in an equimolar ratio of hemoglobin to compound and diluted into TES (2-[[1,3-dihydroxy-2-(hydroxymethyl)propan-2-yl]amino]ethanesulfonic acid)/saline buffer prior to measurements. The diluted samples were then oxygenated with compressed air within the Hemox Analyzer and the OECs were collected during deoxygenation as previously described (Guarnone et al., Haematologica, 1995, 80, 426-430). p 50 (partial pressure of 02 at which Hb is 50% saturated with 02) values were obtained using a non-linear regression analysis. Percentage change in p 50 [Δp50(%)]was calculated as follows: Δp50(%)=[(p 50 of control)-p 50 with compound)/p 50 control]x 100. The sodium salts of compounds 2B (Enantiomer 1), 4B, and 5B described above were used.

Series [2] can be described thus: Rat PK, oral gavage. The series is classed as in vivo. The following applies: fasted male Sprague-Dawley rats, oral gavage 2 mg/kg and/or 10 mg/kg, sodium salt of 5B used; for half-life: male, Sprague-Dawley, rat, whole blood, po; for T1/2: blood. As for the experimental part:
A group of fasted male Sprague-Dawley rats were dosed via oral gavage at 2 mg/kg and/or 10 mg/kg with test articles formulated in 0.5% methylcellulose suspension with 0.01% polysorbate 80 in PBS (phosphate buffered saline). Blood samples were collected through jugular vein at pre-selected time points. Blood samples were prepared by protein precipitation with ACN, vortexed and then centrifuged before supernatants were transferred for bioanalysis. Test article concentrations were measured by HPLC-MS-MS. Pharmacokinetic parameters were calculated using non-compartment analysis. The T1/2 was calculated via a linear regression of the terminal phase of the blood-time concentration profile.
Results for various compounds disclosed herein (sodium salt of compound 5B described above was used) and select reference compounds (Compound A and Compound B) are summarized in Table 5A and Table 5B.

What is called half-life is the time needed for the level to fall by half in the phase considered.

T1 sequence (P69905 2-142 limits assumed): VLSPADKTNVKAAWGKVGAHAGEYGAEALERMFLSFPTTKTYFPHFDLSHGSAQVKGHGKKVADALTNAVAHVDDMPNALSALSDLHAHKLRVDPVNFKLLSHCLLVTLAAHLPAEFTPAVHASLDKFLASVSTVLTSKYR
T1 sequence (P68871 2-147 limits assumed): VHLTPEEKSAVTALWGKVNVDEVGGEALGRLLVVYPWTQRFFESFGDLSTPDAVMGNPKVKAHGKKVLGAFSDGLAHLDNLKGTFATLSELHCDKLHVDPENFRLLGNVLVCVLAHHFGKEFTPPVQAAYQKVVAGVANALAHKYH

With `O=Cc1c(O)cccc1OCC1CSCCN1C(=O)c1ccccc1CC(=O)O` (stereo not drawn) [Compound 6A, 2-(2-{3-[(2-formyl-3-hydroxyphenoxy)methyl]thiomorpholine-4-carbonyl}phenyl)acetic acid], in series [1], the “Delta-p50 (%)” value was 5.09%.
With `O=Cc1c(O)cccc1OC[C@@H]1CCCCN1C(=O)c1ccccc1CC(=O)O` [Compound 4A, 2-{2-[(2S)-2-[(2-formyl-3-hydroxyphenoxy)methyl]piperidine-1-carbonyl]phenyl} acetic acid], the “Delta-p50 (%)” value in series [1] is recorded as 63.6%. Besides, in series [2], the half-life was 89.2 h.
For `O=Cc1c(O)cccc1OC[C@@H]1CCCCN1C(=O)c1ccccc1` [Reference Compound A, reference compound], the half-life in series [2] is 25.9 h.
For `O=Cc1c(O)cccc1OCC1CSCCN1C(=O)c1ccccc1C(=O)O` (single isomer, unassigned) [Compound 5A (Enantiomer 2), 2-(3-((2-formyl-3-hydroxyphenoxy)methyl)thiomorpholine-4-carbonyl)benzoic acid], in series [1], the “Delta-p50 (%)” value turned out to be 19.57%. Also, the “T1/2” value in series [2] turned out to be 13 h.
Regarding `O=Cc1c(O)cccc1OC[C@@H]1CSCCN1C(=O)c1ccccc1CCC(=O)O` [Compound 9A, 3-{2-[(3R)-3-[(2-formyl-3-hydroxyphenoxy)methyl]thiomorpholine-4-carbonyl]phenyl}propanoic acid], the “Delta-p50 (%)” value in series [1] is given as 46.78%. In series [2], the half-life was 88.7 h.
Turning to `O=Cc1c(O)cccc1OC[C@@H]1COCCN1C(=O)c1cccnc1C(=O)O` [Compound 3B, 3-[(3S)-3-[(2-formyl-3-hydroxyphenoxy)methyl]morpholine-4-carbonyl]pyridine-2-carboxylic acid], in series [1], the “Delta-p50 (%)” value amounted to 0.65%.
Turning to `O=Cc1c(O)cccc1OC[C@@H]1COCCN1C(=O)c1ccccc1CC(=O)O` [Compound 3A, 2-{2-[(3S)-3-[(2-formyl-3-hydroxyphenoxy)methyl]morpholine-4-carbonyl]phenyl}acetic acid], the “Delta-p50 (%)” value in series [1] is listed as 11.72%.
On the same count and under the same terms, under `O=Cc1c(O)cccc1OCC1CSCCN1C(=O)c1cccnc1CC(=O)O` (single isomer, unassigned) [Compound 2B (Enantiomer 1), 2-{3-[3-[(2-formyl-3-hydroxyphenoxy)methyl]thiomorpholine-4-carbonyl]pyridin-2-yl} acetic acid] stands 10.72%.
For the compound `O=Cc1c(O)cccc1OC[C@@H]1CCCCN1C(=O)c1ccccc1C(=O)O` [Compound 1A, 2-[(2S)-2-[(2-formyl-3-hydroxyphenoxy)methyl]piperidine-1-carbonyl]benzoic acid], in series [1], the “Delta-p50 (%)” value is given as 66.43%. Also, the half-life in series [2] was 110 h.
As to `O=Cc1c(O)cccc1OC[C@@H]1COCCN1C(=O)c1ccccc1CCC(=O)O` [Compound 8A, 3-{2-[(3S)-3-[(2-formyl-3-hydroxyphenoxy)methyl]morpholine-4-carbonyl]phenyl} propanoic acid], in series [1], the “Delta-p50 (%)” value is listed as 55.01%. Further, the half-life in series [2] was 102 h.
For the compound `O=Cc1c(O)cccc1OC[C@@H]1COCCN1C(=O)c1ccccc1C(=O)O` [Compound 2A, 2-[(3S)-3-[(2-formyl-3-hydroxyphenoxy)methyl]morpholine-4-carbonyl]benzoic acid], the “Delta-p50 (%)” value in series [1] came out at 4.19%.
Take `O=Cc1c(O)cccc1OC[C@@H]1CCCCN1C(=O)c1ccccc1CCC(=O)O` [Compound 7A, 3-{2-[(2S)-2-[(2-formyl-3-hydroxyphenoxy)methyl]piperidine-1-carbonyl]phenyl}propanoic acid]: the “Delta-p50 (%)” value in series [1] is given as 77.13%. In addition, the half-life in series [2] was 52 h.
The matching figures for `O=Cc1c(O)cccc1OC[C@@H]1CCCCN1C(=O)c1cccnc1CC(=O)O` [Compound 5B, (S)-2-(3-(2-((2-formyl-3-hydroxyphenoxy)methyl)piperidine-1-carbonyl)pyridin-2-yl)acetic acid]: −3.32% and 120 h.
With `O=Cc1c(O)cccc1OCC1CSCCN1C(=O)c1cccnc1C(=O)O` (single isomer, unassigned) [Compound 6B (Enantiomer 1), 3-[3-[(2-formyl-3-hydroxyphenoxy)methyl]thiomorpholine-4-carbonyl]pyridine-2-carboxylic acid], in series [1], the “Delta-p50 (%)” value came to 14.15%.
Regarding `O=Cc1c(O)cccc1OC[C@@H]1COCCN1C(=O)c1ccccc1` [Reference Compound B, reference compound], the half-life in series [2] was 29.8 h.
`O=Cc1c(O)cccc1OCC1CSCCN1C(=O)c1ccccc1C(=O)O` (single isomer, unassigned) [Compound 5A (Enantiomer 1), 2-(3-((2-formyl-3-hydroxyphenoxy)methyl)thiomorpholine-4-carbonyl) benzoic acid]: the “Delta-p50 (%)” value in series [1] is 11.04%. The “T1/2” value in series [2] came to 213 h.
On to `O=Cc1c(O)cccc1OC[C@@H]1COCCN1C(=O)c1cccnc1CC(=O)O` [Compound 4B, 2-{3-[(3S)-3-[(2-formyl-3-hydroxyphenoxy)methyl]morpholine-4-carbonyl]pyridin-2-yl} acetic acid], for which the “Delta-p50 (%)” value in series [1] is −8.28%.
For the compound `O=Cc1c(O)cccc1OC[C@@H]1CCCCN1C(=O)c1cccnc1C(=O)O` [Compound 1B, 3-[(2S)-2-[(2-formyl-3-hydroxyphenoxy)methyl]piperidine-1-carbonyl]pyridine-2-carboxylic acid], the “Delta-p50 (%)” value in series [1] is listed as 0.4%. For the same compound, the half-life in series [2] was 11.7 h.

Source of the values: US12649719B2, “Modulators of hemoglobin” (Global Blood Therapeutics, Inc., priority 2020, dated 2026).
